Assay results as given in PMC12662248 (ADMET & DMPK, 2025).
Entries after “also recorded” stand apart in the source; their conditions may differ. Where two headings read alike, the source gives them in different places.

How the values were obtained:
[1] = system: plateable human hepatocytes; experiment: Plateable hepatocytes stability (metoprolol depletion); assay type: in vitro ADME
Method: Cryopreserved human hepatocytes were thawed by immersing vials in a pre-warmed 37 °C water bath. The cell pellets were then transferred to thawing medium and centrifuged to isolate viable cells. […] Aliquots were collected at 0, 2, 4, 8, 24, 48 and 72 hours, and reactions were quenched with cold acetonitrile/methanol (1:1, v/v) containing labetalol (100 ng mL^-1). After centrifugation (12,000g, 15 min, 4 °C), supernatants were analysed via LC-30AD-API5500 (LC-MS/MS, SCIEX, USA) for semiquantitative assessment. […] Hepatocyte viability data was expressed as mean±SD.

[2] = system: plateable human hepatocytes; conditions: cited from earlier work
[3] = system: plateable rat hepatocytes; experiment: Plateable hepatocytes cytotoxicity (CellTiter-Glo ATP assay), rat; assay type: cell-based; conditions: 48 hours; for cytotoxicity in rat hepatocytes (words): 0 to 500 μM
Method: (§1) Cryopreserved plateable rat and human hepatocytes were thawed by immersing vials in a pre-warmed 37 °C water bath. The cell pellets were then transferred to thawing medium and centrifuged to isolate viable cells. […] Prior to the measurement, the cell culture plate was equilibrated to ambient temperature. Subsequently, 100 μL of CellTiter-Glo® reagent was dispensed into each well, followed by orbital shaking (5 min) to ensure complete cell lysis. After a 10-minute stabilization at room temperature, luminescence signals were quantified using an envision® multilabel plate reader.

[4] = system: plateable human hepatocytes; experiment: Plateable hepatocytes cytotoxicity (CellTiter-Glo ATP assay), human; assay type: cell-based; conditions: 0 to 500 μM, 48 hours, regardless of ABT co-treatment
Method: as §1

[5] = system: plateable dog hepatocytes; experiment: Metabolite identification in plateable dog hepatocytes; assay type: in vitro ADME; conditions: 10 μM metoprolol, 72 hours
Method: (§2) Cryopreserved rat, dog, monkey and human hepatocytes were thawed by immersing vials in a pre-warmed 37 °C water bath. The cell pellets were then transferred to thawing medium and centrifuged to isolate viable cells. Then, hepatocytes were diluted to 0.7 million cells mL^-1 and seeded into collagen-coated 48-well plates (0.2 mL per well) in duplicate. After 6 hours of attachment, the plating medium was replaced with incubation medium containing 1 % Matrigel™. […] Reactions were quenched at 72 hours with cold acetonitrile containing 0.1 % formic acid, and supernatants were dried under nitrogen gas. The residues were reconstituted in acetonitrile/water (1:9 volume ratio) with 0.1 % formic acid and analysed LC-HRMS. The M7 metabolite was isolated, purified, and concentrated via a mass spectrometry switching valve, followed by sample reconstitution, and subsequent analysis on LC-HRMS.
(§3) The maximum injection time was limited to 50 ms.
(§4) Hepatocyte viability data was expressed as mean±SD.

[6] = system: plateable monkey hepatocytes; experiment: Metabolite identification in plateable monkey hepatocytes; assay type: in vitro ADME; conditions: 10 μM metoprolol, 72 hours
Method: as §2, §3, §4

[7] = system: plateable rat hepatocytes; experiment: Metabolite identification in plateable rat hepatocytes; assay type: in vitro ADME; conditions: 10 μM metoprolol, 72 hours
Method: as §2, §3, §4

recombinant 2D6 enzymes [8] = target: T1, recombinant 2D6 enzymes (Homo sapiens, UniProt P10635); conditions: 60 min, 1 μM
Method: (§5) Human recombinant cytochrome 2D6 enzymes were diluted to 50 pmol mL^-1 in 50 mM phosphate buffer. […] Reactions were initiated by adding NADPH (final concentration: 1 mM), and aliquots were collected at 60 min. Samples were quenched with cold acetonitrile containing 0.1 % formic acid, centrifuged (12,000g, 15 min, 4 °C), then supernatants were dried, reconstituted, centrifuged (12,000g, 15 min, 4 °C), and subjected to an analysis on LC-HRMS..
(§6) Qualitative LC-HRMS analysis was conducted using an Ultimate 3000 pump (ThermoFisher, Germany) and a Q-Exactive Plus spectrometer. The mobile phase A was distilled water containing 0.1 % formic acid and the mobile phase B was acetonitrile containing 0.1 % formic acid. The liquid chromatography (LC) gradient spanned 22 min: 0 to 1.0 minute at 5 % B; 1.0 to 6.0 min, 5 to 15 % B; 6.0 to 14.0 mi, 15 to 25 % B; 14.0 to 16.0 min, 25 to 90 % B; 16.0 to 18.0 min, 90 to 95 % B; 18.0 to 20.0 min, 95 to 5 % B; and 20.0 to 22.0 min at 5 % B (flow rate: 0.3 mL min^-1). MS parameters included: spray voltage: 3.8 kV, capillary temperature: 320 °C, heater temperatures: 350 °C, sheath gas: 2.76 MPa, auxiliary nitrogen pressures: 0.7 MPa and tube lens voltage: 10 eV. The full scan Q1 resolution was set to 70,000, and the automatic gain control (AGC) target value was set to 5×10^5 intensity. The maximum injection time was limited to 50 ms. The dd-MS^2 resolution was set at 17,500, with the AGC target set at 5×10^4. External calibration was performed, yielding a deviation of less than 5.0 ppm. Data was processed using Xcalibur 4.1.31.9 software (ThermoFisher, Germany; https://www.thermofisher.com/order/catalog/product/OPTON-30965).
(§7) LC-HRMS raw data was extracted with Xcalibur, and metabolites were identified using Compound Discoverer 3.0 (ThermoFisher, Germany; https://www.thermofisher.com/order/catalog/product/OPTON-31061) by comparing fragment patterns between parent compounds, metabolites, and standards.

[9] = system: plateable human hepatocytes; experiment: Metabolite identification in plateable human hepatocytes; assay type: in vitro ADME; conditions: 10 μM metoprolol, 72 hours
Method: as §2, §3, §4

recombinant 2D6 enzymes [10] = target: T1, recombinant 2D6 enzymes; experiment: Metabolite identification in recombinant cytochrome 2D6 enzymes; conditions: human recombinant 2D6 enzymes, 1 μM metoprolol, 60 min
Method: as §5, §6, §7

T1 sequence (P10635 whole entry): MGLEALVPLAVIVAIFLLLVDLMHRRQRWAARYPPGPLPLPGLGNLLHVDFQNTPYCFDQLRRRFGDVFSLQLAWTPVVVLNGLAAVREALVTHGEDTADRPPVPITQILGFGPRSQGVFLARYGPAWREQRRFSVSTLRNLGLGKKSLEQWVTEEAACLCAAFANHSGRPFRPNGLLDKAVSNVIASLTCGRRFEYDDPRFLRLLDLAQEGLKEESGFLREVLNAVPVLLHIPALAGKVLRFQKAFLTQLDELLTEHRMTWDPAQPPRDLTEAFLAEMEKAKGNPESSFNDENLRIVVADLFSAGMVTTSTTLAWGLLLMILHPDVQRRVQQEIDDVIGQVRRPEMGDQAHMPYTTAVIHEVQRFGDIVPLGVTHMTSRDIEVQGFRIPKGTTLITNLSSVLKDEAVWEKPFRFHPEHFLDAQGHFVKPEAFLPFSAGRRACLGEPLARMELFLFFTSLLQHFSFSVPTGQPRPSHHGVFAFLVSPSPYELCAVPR

Structure (SMILES) | Relative peak area, plateable hepatocytes, D [5] | Relative peak area, plateable hepatocytes, Mk [6] | Relative peak area, plateable hepatocytes, R [7] | Relative peak area, 2D6, H (recombinant 2D6 enzymes [8]) | Relative peak area, plateable hepatocytes, H [9] | other results
COCCc1ccc(OCC(O)CNC(C)C)cc1 (centres unmarked) [metoprolol, Metoprolol] | – | – | – | – | – | in vivo CLint ([1]; extrapolated from plateable human hepatocyte CLint): 1.59 ± 0.31 mL/min/kg; in vitro intrinsic clearance (CLint) ([1]; plateable human hepatocytes, 1 μM, 72-hour incubation): 0.56±0.12 μL min^-1 per million cells; in vivo clearance ([2]; correlating with plateable human hepatocyte clearance): 1.4 mL/min/kg; clearance in hepatocytes ([2]; previously reported): 4.28 μL min^-1 per million cells; clearance in plateable human hepatocytes ([2]; previously reported): 2.2 ± 0.7 μL min^-1 per million cells; cytotoxicity in rat hepatocytes (words) ([3]; without ABT): weak cytotoxicity; also recorded: weak hepatotoxicity; cytotoxicity in rat hepatocytes (words) ([3]; without ABT, listed as Metoprolol): cytotoxic only at a concentration of 500 μM; effect of ABT pre-treatment on metoprolol cytotoxicity ([3]; rat hepatocytes, 500 μM metoprolol with 50 μM ABT): reversed the cytotoxic effect; reductions in cell viability ([3]; rat hepatocytes, 500 μM metoprolol, without ABT): > 30%; cytotoxicity in human hepatocytes (words) [4]: No significant reduction in cell viability; also recorded: no significant hepatotoxicity; cytotoxicity in human hepatocytes (words) ([4]; listed as Metoprolol): no observable cytotoxicity
NCC(O)COc1ccc(CCO)cc1 (centres unmarked) [M3] | 0.7% | 0.1% | – | 1.6% | – | –
COCCc1ccc(OCC(O)CN)cc1 (centres unmarked) [M18] | 5.8% | – | 0.1% | 6.4% | – | –
CC(C)NCC(O)COc1ccc(CC(=O)O)cc1 (centres unmarked) [M17, metoprolol acid] | 19.9% | 82.6% | 57.2% | – | 14.6% | Relative peak area, 2D6, H (recombinant 2D6 enzymes [10]): 18.3%

Further lines, with some results ahead:

Relative peak area, plateable hepatocytes, D [5] | Relative peak area, plateable hepatocytes, Mk [6] | Relative peak area, plateable hepatocytes, R [7] | Relative peak area, 2D6, H (recombinant 2D6 enzymes [8]) | Relative peak area, plateable hepatocytes, H [9] | Structure (SMILES) | other results
9.4% | 5.6% | 24.4% | 20.1% | 2.7% | COCC(O)c1ccc(OCC(O)CNC(C)C)cc1 (stereo not drawn) [M10, α-hydroxy-metoprolol] | –
– | 0.2% | 0.4% | 1.7% | – | CC(C)NCC(O)COc1ccc(C(=O)O)cc1 (centres unmarked) [M9] | –
20.5% | 0.1% | 3.8% | 22.8% | 6.0% | CC(C)NCC(O)COc1ccc(CCO)cc1 (centres unmarked) [M13, O-desmethyl-metoprolol] | –
